Data taken from US4824837A, “Novel 1,4-dihydropyridine derivatives, process for preparing the same, and agents for treating disorders of circulatory system” (Suntory Limited, priority 1985, dated 1989).
Like-named read-outs stand apart in the source and are kept apart here.

Columns and labels:
[1] = system: conscious spontaneously hypertensive rats (SHR); test: hypotensive action in conscious spontaneously hypertensive rats (SHR); format: in vivo; conditions: 10 mg/kg orally, starved overnight
Description: Selected compounds of the present invention were tested for their hypotensive action in conscious spontaneously hypertensive rats (SHR).
A group of 17 to 20-week old male SHR were anesthetized with ether and a cannula was inserted into the left femoral artery. At least one day after the operation, the cannula was connected to a pressure transducer and the blood pressure was measured continuously under conscious and unrestrained condition, thereby obtaining the data shown in Table 4. Each of the test compounds as a clear suspension in 0.5% CMC-Na was administered orally at a dose of 10 mg/kg (body weight) to each animal which was starved overnight.

[2] = acute toxicity (LD50) in male mice; conditions: mouse, in vivo
From the text: The acute toxicity (LD50) data of selected compounds of the present invention as administered to two groups of male mice were obtained and the results are shown in Table 5. One group of mice which received peroral administration had been starved overnight. Each of the test compounds was suspended in 0.5% CMC-Na for peroral administration, or dissolved in dimethyl sulfoxide and diluted with physiological saline solution for intravenous injection.

[3] = system: vascular resistance of the vertebral artery; test: vascular resistance of the vertebral artery in anesthetized dogs; format: in vivo; conditions: intravenous injection; for ED30: Canis lupus familiaris, vertebral artery vascular resistance
Description: The pharmacological effect (ED30) of selected 2-chloro-1,4-dihydropyridine derivatives of the present invention with respect to the vascular resistance of the vertebral artery in anesthetized dogs was treated by the following procedures.
Adult dogs of either sex (7-14 kg in body weight) were anesthetized with at first thiopental sodium (35 mg/kg, intraperitoneal), anesthetized with urethane (400 mg/kg, intravenous) and α-chloalose (60 mg/kg, intravenous) and kept under artificial respiration throughout the experiment. After thoracotomy at the left first intercostal space, the vertebral artery was exposed and blood flow was measured with an intracorporeal flow probe connected to an electromagnetic flowmeter (MF-27, Nihon Kohden).
At the same time, continuous measurement of the following parameters was made: systemic blood pressure (mean pressure) at the right femoral artery, the limb lead II ECG, the heart rate with a tachometer triggered by the R wave of ECG, and the vascular resistance determined by loading an electronic divider (EO-601 G, Nihon Kohden) with the mean values of blood pressure and vertebral artery blood flow. All of these parameters were recorded simultaneously on a polygraph (RM-600, Nihon Kohden).
All the test compounds were injected through a cannula inserted into the femoral vein.
The ED30 (μg/kg) values obtained by intravenous injection and the values of T1/2 (min) (the time to reach 50% of the resistance drop) are shown in Table 3, wherein the Compound Numbers are keyed to the Example Numbers.

[4] = system: isolated guinea pig hearts (coronary artery); test: coronary vascular dilative effect in isolated guinea pig hearts (Langendorff); parameters: species or system Hartley guinea pigs; conditions: isolated hearts perfused at 37° C., 0.1 ml of diluted solution into the coronary artery
Description: The coronary vascular dilative effect of selected 2-chloro-1,4-dihydropyridine derivatives of the present invention was tested.
Hartley guinea pigs (weight 400-500 g) were killed by a blow on the head and their hearts were immediately isolated. The hearts were perfused with Krebs-Henseleit solution bubbled with a mixture of 95% O2 +5% CO2 and maintained at 37° C. at a constant rate of 6 ml/minute according to Langendorff's method [J. Pharmacol. Methods 2, 143 (1979)]. The perfusion pressure was measured continuously by a pressure transducer. Samples were prepared by emulsifying 1 mg of a test compound in 1 ml of a mixture of dimethylsulfoxide and physiological saline solution (1:9) and diluting with physiological saline solution to the predetermined concentration. 0.1 ml of the diluted solution was administered into the coronary artery via rubber tube connected to an aorta cannula to obtain ED50 (μg/heart) data as shown in Table 2. The numbers of the compounds in the Table correspond respectively to those of the working examples described above.

[5] = iv, male mice, read-out: LD50 i.v.
[6] = po, male mice starved overnight, suspended in 0.5% CMC-Na, read-out: LD50 p.o.

With `COC(=O)C1=C(C)NC(C)=C(C(=O)OCCN(C)Cc2ccccc2)C1c1cccc([N+](=O)[O-])c1` (stereo not drawn) [Nicardipine, reference compound] the “Blood pressure drop, Maximum drop” value [1] was 39%, the “Blood pressure drop, 6 hours” value [1] was 10-20% and the LD50 [2, 5] was 12.2 mg/kg. The LD50 [2, 6] was 455 mg/kg.
With `COC(=O)C1=C(C)NC(Cl)=C(C(=O)OC)C1c1cccc([N+](=O)[O-])c1` (stereo not drawn) [SUN 4616] the ED30 [3] was 0.0012 mg/kg.
`COC(=O)C1=C(C)NC(Cl)=C(C(=O)OC)C1c1ccccc1[N+](=O)[O-]` (stereo not drawn) [SUN 4671] gave an ED30 [3] of 0.00059 mg/kg.
For `COC(=O)C1=C(Cl)NC(C)=C(C(=O)OCCN2CCN(C(c3ccccc3)c3ccccc3)CC2)C1c1cccc([N+](=O)[O-])c1` (stereo not drawn) [SUN 4752, 5-[2-(4-Benzhydrylpiperazin-1-yl)ethyl]oxycarbonyl-2-chloro-3-methoxycarbonyl-6-methyl-4-(3-nitrophenyl)-1,4-dihydropyridine], the ED30 [3] was 0.003 mg/kg, the “T1/2 (the time to reach 50% of the resistance drop)” value [3] was over 30 min and the “Blood pressure drop, Maximum drop” value [1] was 35%. For the same compound, the “Blood pressure drop, 6 hours” value [1] was 30%, the LD50 [2, 5] was 23 to 27 mg/kg and the LD50 [2, 6] was 1000 mg/kg.
In the case of `COC(=O)C1=C(Cl)NC(C)=C(C(=O)OCCN(C)Cc2ccccc2)C1c1cccc([N+](=O)[O-])c1` (stereo not drawn) [SUN 5017], the ED30 [3] is reported as 0.0033 mg/kg and the “T1/2 (the time to reach 50% of the resistance drop)” value [3] is reported as 17.0 min.
For `COC(=O)C1=C(Cl)NC(C)=C(C(=O)OCCN2CCN(C3c4ccccc4-c4ccccc43)CC2)C1c1cccc([N+](=O)[O-])c1` (stereo not drawn) [SUN 5018], the ED30 [3] was 0.0043 mg/kg and the “T1/2 (the time to reach 50% of the resistance drop)” value [3] was 15.5 min.
For `COC(=O)C1=C(Cl)NC(C)=C(C(=O)OCCCCCc2ccccc2)C1c1cccc([N+](=O)[O-])c1` (stereo not drawn) [SUN 5088], the ED30 [3] was 0.0014 mg/kg and the “T1/2 (the time to reach 50% of the resistance drop)” value [3] was 17.0 min.
With `COC(=O)C1=C(Cl)NC(C)=C(C(=O)OC(C)C)C1c1cccc([N+](=O)[O-])c1` (stereo not drawn) [SUN 5141] the ED30 [3] was 0.00028 mg/kg, the “T1/2 (the time to reach 50% of the resistance drop)” value [3] was 10.6 min and the ED50 [4] was 0.05 μg/heart. For the same compound, the “Blood pressure drop, Maximum drop” value [1] was 51%, the “Blood pressure drop, 6 hours” value [1] was 33% and the LD50 [2, 5] was 80 mg/kg.
With `COC(=O)C1=C(Cl)NC(C)=C(C(=O)OC2CCCN(Cc3ccc(F)cc3)C2)C1c1cccc([N+](=O)[O-])c1` (stereo not drawn) [SUN 5142, 2-Chloro-5-[1-(4-fluorobenzyl)piperidin-3-yl]oxycarbonyl-3-methoxycarbonyl-6-methyl-4-(3-nitrophenyl)-1,4-dihydroppyridine] the ED30 [3] was 0.0028 mg/kg, the “T1/2 (the time to reach 50% of the resistance drop)” value [3] was over 30 min and the ED50 [4] was 0.03 μg/heart.
In the case of `CCCCCCCOC(=O)C1=C(C)NC(Cl)=C(C(=O)OC)C1c1cccc([N+](=O)[O-])c1` (stereo not drawn) [SUN 5143], the ED30 [3] is reported as 0.0022 mg/kg, the “T1/2 (the time to reach 50% of the resistance drop)” value [3] is reported as 20.5 min and the ED50 [4] is reported as 0.02 μg/heart.
With `COC(=O)C1=C(Cl)NC(C)=C(C(=O)OCCOc2ccccc2)C1c1cccc([N+](=O)[O-])c1` (stereo not drawn) [SUN 5151] the ED30 [3] was 0.0036 mg/kg and the “T1/2 (the time to reach 50% of the resistance drop)” value [3] was 10.5 min.
For `COC(=O)C1=C(Cl)NC(C)=C(C(=O)OCCc2cccs2)C1c1cccc([N+](=O)[O-])c1` (stereo not drawn) [SUN 5163], the ED30 [3] was 0.0093 mg/kg and the “T1/2 (the time to reach 50% of the resistance drop)” value [3] was 14.0 min.
`COC(=O)C1=C(Cl)NC(C)=C(C(=O)OCC2CC2)C1c1cccc([N+](=O)[O-])c1` (stereo not drawn) [SUN 5164] showed an ED30 [3] of 0.00022 mg/kg.
In the case of `COC(=O)C1=C(Cl)NC(C)=C(C(=O)OC(CN(C)Cc2ccccc2)c2ccccc2)C1c1cccc([N+](=O)[O-])c1` (stereo not drawn) [SUN 5181], the ED30 [3] is reported as 0.0021 mg/kg.
For `COCCOC(=O)C1=C(C)NC(Cl)=C(C(=O)OC)C1c1cccc([N+](=O)[O-])c1` (stereo not drawn) [SUN 5220], the ED30 [3] was 0.0058 mg/kg and the “T1/2 (the time to reach 50% of the resistance drop)” value [3] was 13.5 min.
With `CCOC(=O)C1=C(Cl)NC(C)=C(C(=O)OCCN2CCOCC2)C1c1ccccc1[N+](=O)[O-]` (stereo not drawn) [SUN 5252] the ED30 [3] was 0.0036 mg/kg.
